According to patent US5208032A, “Increasing the growth of turkeys using implant of 19-nortestosterone” (Rutgers, The State University of New Jersey, priority 1992, dated 1993):

Tests used:
[1] = Comparison of effect of 19-nortestosterone and 5-alpha-DHT on growth in castrated male White Leghorn chickens (Study V, Table III); format: in vivo; conditions: for Abdominal Adipose / Final Shank-toe Length / Right Breast Muscle: 6 weeks; for Abdominal Adipose Change / Final 6-week Body Wt. Change / Final Shank-toe Length Change / Right Breast Muscle Change: given unsigned (decrease vs cholesterol); for Final 6-week Body Wt.: minus comb + wattle weight
Description: The single comb White Leghorn strain (Dekalb XL) of chicken (Avian Services, Frenchtown, N.J.) was used in all studies. Chicks were obtained on the day following hatch and were then maintained in a well ventilated, temperature- and humidity-controlled animal room. Chicks were housed in temperature-controlled (access to small brood chambers--32° to 35° C.), wire-floored, 5-tier brooder batteries (measuring 0.74 W×1.55 L×0.27 H m per tier) until termination of respective studies. A 12 hour light:12 hour dark photoperiod was maintained at all times within the animal room. Feed and water were available ad libitum, with a standard commercial diet (Agway; Bordentown, N.J.), chick starter mash, fed to chicks 1 to 42 days of age, and then from 43 to 84 days, grower mash was provided (manufacturer statement on ration compositions are shown in Table 2).
Excluding Study II, chicks were either castrated (Quigley, 1967) or sham-operated at 13 days of age. Prior to castration, cockerels were deprived of feed and water for 24 hours in order that the intestines may become empty and thus permit better vision into the body cavity and accessibility to testes. Birds were restrained by fastening the wings and legs with leather straps so that sufficient tension was applied to hold the bird well stretched out in a lateral recumbency (on its left side). Next, an approximate 1 inch incision was made midway between the last two ribs and a small rib spreader inserted to hold the ribs about 1/2 inch apart.
Forceps were used to remove both testicles, with the lower or left testicle removed first. The forceps were carefully worked over the testicle and so manipulated as to enclose the entire organ. It was then drawn out with a slight twisting motion. At this step, care was taken not to rupture any of the primary blood vessels. When the rib spreader was removed, and the tension on the bird released (i.e., leg and wing straps removed), the skin and thigh muscles slipped back over the incision thus affording a natural protection. No special care was necessary for surgically manipulated birds other than to puncture "air pockets" which developed under the skin due to air escaping from within the abdominal cavity before the incision between the ribs was healed.
In all studies, chicks were rank-ordered by weight, wing-banded and distributed into treatment groups of equal body weights at 14 days of age. Excluding Study I, e.g., in which male, female and castrate male comparisons were made, all control groups were implanted with 1.0-cm length cholesterol-filled Silastic polysiloxane implants (i.e., steroid surface exposure of 1.0-cm; actual length was 2.0-cm with 1/2 cm wood dowel plugs placed at each end of implant). The remaining treatment groups consisted of chicks (male, female or castrated male) implanted with either testosterone-, 5-alpha-DHT-, 5-beta-DHT-, estradiol-17-beta-, or 19-nortestosterone-filled Silastic polysiloxane implants with steriod surface exposures of either 0.3, 1.0 or 3.0 cm in length. Steroid implants were prepared by manually packing respective crystalline steroids (Steraloids; Wilton, N.H.) into Silastic Medical Grade tubing (1.57 mm i.d.; Dow Corning) (Smith et al., 1977). The amounts of steroid contained in the implants were as follows (mean±SEM of 20 randomly chosen implants, 5 for each steroid): 2.6±0.2 mg (0.3-cm), 8.9±0.4 mg (1.0-cm), and 29.2±0.7 mg 3.0-cm). At the time of group assignment, implants were placed in the subcutaneous (S.C.) layer of skin behind the neck. Supplemental steroid implants (containing doses of steroids equivalent to those of the initial implants) were implanted at 6 and 10 weeks of age, without removal of prior implants, to ensure adequate androgen replacement with increasing growth. Cage floors and fecal collection trays were checked for 2 consecutive days following each implantation session to ensure completeness of procedure. […]

5-alpha-DHT anti-serum = experiment: Radioimmunoassay for 5-alpha-DHT: antiserum reaction and inhibition of binding; conditions: standard curve
Description: The following will briefly outline the procedure used for determination of plasma concentration of 5-alpha-DHT. The 5-alpha-DHT anti-serum (Ford's-F/1) was kindly provided by Dr. Alan L. Johnson, Rutgers University, New Brunswick, N.J. This antibody reacted 100% to 5-alpha-DHT,7.9% to testosterone and 11.4% to androstenedione. The antibody was diluted to 1:20,000 in PBSG and stored at 4° C. until added to assay that same day.
5-alpha-Dihydrotestosterone was extracted from plasma ([…]) using benzene:toluene (2:1), with an extraction efficiency of 83.4±6.4 (SD) %. Since further purification of the crude sample extract (i.e., by column chromatography) was not performed, it became necessary to also add extracts from steroid free plasma (i.e., stripped by dextran-coated charcoal) to the standard curve tubes prior to the addition of the different doses of the standard 5-alpha-DHT solutions (3.125 to 1600 pg). […] Following the drying process (Savant-high speed concentrator), 200 microliters 5-alpha-DHT anti-serum solution wwere added to each standard or unknown. After brief vortex mixing, 200 microliters of [1,2,3,7^-3 H] 5-alpha-DHT (^~ 10,000 cpm) was added to each tube and the mixture allowed to incubate overnight at 4° C. The antibody-hormone-bound fraction was separated from the non-bound fraction using a charcoal-dextran suspension. Radioactivity of the bound fraction was measured using a liquid scintillation counter. The percentage bound of the standards was plotted against the log of the hormone concentration to yield a standard curve. Potency estimates of the unknowns were calculated from this standard curve.
Sensitivity of the assay was less than 50.0 pg/ml, while the mean within-assay CV for the low (37.7 pg/ml for plasma stripped and pooled from 3 adult male White Leghorn chickens) and high (265 pg/ml for plasma pooled and not stripped from 3 adult male White Leghorn chickens) plasma pools (n=5) wwas less than 9.4%. The mean between-assay CV for the low and high plasma pools was less than 12.9% (n=7).

For C[C@]12CC[C@H]3[C@@H](CCC4=CC(=O)CC[C@@H]43)[C@@H]1CC[C@@H]2O [19-Nortestosterone, 19-nortestosterone], the “Abdominal Adipose” value ([1]; 0.3-cm implant) was 1.26 ± 0.19 g, the “Final Shank-toe Length” value ([1]; 0.3-cm implant) was 10.8 ± 0.13 cm and the “Right Breast Muscle” value ([1]; 0.3-cm implant) was 13.9 ± 1.1 g. For the same compound, the “Abdominal Adipose Change” value ([1]; 0.3-cm implant) was 58%, the “Final 6-week Body Wt. Change” value ([1]; 0.3-cm implant) was 16.9% and the “Final Shank-toe Length Change” value ([1]; 0.3-cm implant) was 9.2%. For the same compound, the “Right Breast Muscle Change” value ([1]; 0.3-cm implant) was 29.8%, the “Final 6-week Body Wt.” value ([1]; 0.3-cm implant) was 384 ± 18 g and the “Abdominal Adipose” value ([1]; 1.0-cm implant) was 0.26 ± 0.08 g. For the same compound, the “Final Shank-toe Length” value ([1]; 1.0-cm implant) was 10.2 ± 0.12 cm, the “Right Breast Muscle” value ([1]; 1.0-cm implant) was 13.2 ± 0.87 g and the “Abdominal Adipose Change” value ([1]; 1.0-cm implant) was 91%. For the same compound, the “Final 6-week Body Wt. Change” value ([1]; 1.0-cm implant) was 24.0%, the “Final Shank-toe Length Change” value ([1]; 1.0-cm implant) was 14.3% and the “Right Breast Muscle Change” value ([1]; 1.0-cm implant) was 33.3%. For the same compound, the “Final 6-week Body Wt.” value ([1]; 1.0-cm implant) was 351 ± 13 g, the “Abdominal Adipose” value ([1]; 3.0-cm implant) was 0.58 ± 0.12 g and the “Final Shank-toe Length” value ([1]; 3.0-cm implant) was 9.8 ± 0.17 cm. For the same compound, the “Right Breast Muscle” value ([1]; 3.0-cm implant) was 12.0 ± 0.96 g, the “Abdominal Adipose Change” value ([1]; 3.0-cm implant) was 81% and the “Final 6-week Body Wt. Change” value ([1]; 3.0-cm implant) was 24.5%. For the same compound, the “Final Shank-toe Length Change” value ([1]; 3.0-cm implant) was 17.6%, the “Right Breast Muscle Change” value ([1]; 3.0-cm implant) was 39.4% and the “Final 6-week Body Wt.” value ([1]; 3.0-cm implant) was 349 ± 19 g.

In the case of C[C@]12CCC(=O)C[C@@H]1CC[C@@H]1[C@@H]2CC[C@]2(C)[C@@H](O)CC[C@@H]12 [5-alpha-DHT, 5-alpha-dihydrotestosterone], the “Abdominal Adipose” value ([1]; 1.0-cm implant) was 2.05 ± 0.12 g, the “Final Shank-toe Length” value ([1]; 1.0-cm implant) was 11.4 ± 0.07 cm and the “Right Breast Muscle” value ([1]; 1.0-cm implant) was 16.3 ± 0.67 g. For the same compound, the “Abdominal Adipose Change” value ([1]; 1.0-cm implant) was 33%, the “Final 6-week Body Wt. Change” value ([1]; 1.0-cm implant) was 8.6% and the “Final Shank-toe Length Change” value ([1]; 1.0-cm implant) was 4.2%. For the same compound, the “Right Breast Muscle Change” value ([1]; 1.0-cm implant) was 17.7%, the “Final 6-week Body Wt.” value ([1]; 1.0-cm implant) was 422 ± 10 g and the “80 percent inhibition of binding” value (5-alpha-DHT anti-serum; n=7) was 321.4±31.9 pg/tube. The “Twenty percent inhibition of binding” value (5-alpha-DHT anti-serum; n=7) was 16.9±2.1 pg/tube and the “50 percent inhibition of binding” value (5-alpha-DHT anti-serum; n=7, 3.125 to 1600 pg) was 67.4±8.2 pg/tube.
